In US20230372327A1, “PHARMACEUTICAL COMPOSITION BASED ON […]/OR ITS SALTS FOR NASAL ADMINISTRATION” (Pharmbiotest Poland Sp. z o. o., priority 2020, published 2023) one finds adverse reactions recorded, bioavailability and bioavailability of nalbuphine data, which are given here for one compound.

The conditions of data set [1]: 12 volunteers.
Source text: The total number of healthy adult male subjects enrolled was twelve. Throughout the study, the conditions of their hospital stay, a dietary pattern, a water consumption regimen, a physical activity regimen for the volunteers were standardized. The clinical step of study consisted of a screening, two study periods, a washout period, and the final examination. The total duration of study, starting from the screening through the completion of study, was approximately three weeks with a seven-day wash-out period between medication administrations. Each study period was preceded by inpatient hospitalization in the evening of the previous day. The medications were dosed on Day 1 of each study period starting from 08:00 a.m. The subjects stayed in the centre for 24 hours after the administration of the medication under study in each study period. In each study period the following was done: the intake of the medications under study whose prescription was determined by a simple randomization method; blood sampling for the determination of active pharmaceutical ingredient concentration; the measurement of vital data such as blood pressure (BP), heart rate; and questionnaire survey of volunteers. […]
A short description of a further data set: clinical. To be noted: male, human, plasma, other: intranasal (nasal spray), 10 mg.
For data set [2] the following is noted: printed: following nasal use (administration); prior-art compositions, strong first-pass effect; cited from earlier work.

Molecules are shown by their SMILES. Where a name gives a salt, the structure may show the parent alone. Read-outs that look alike come from different tables or passages of the source.

Source text for clinical: The total number of healthy adult male subjects enrolled was twelve. Throughout the study, the conditions of their hospital stay, a dietary pattern, a water consumption regimen, a physical activity regimen for the volunteers were standardized. The clinical step of study consisted of a screening, two study periods, a washout period, and the final examination. The total duration of study, starting from the screening through the completion of study, was approximately three weeks with a seven-day wash-out period between medication administrations. Each study period was preceded by inpatient hospitalization in the evening of the previous day. […] In each study period the following was done: the intake of the medications under study whose prescription was determined by a simple randomization method; blood sampling for the determination of active pharmaceutical ingredient concentration; the measurement of vital data such as blood pressure (BP), heart rate; and questionnaire survey of volunteers.
Blood was sampled as follows: 0 hours, 15 min., 30 min., 45 min., 1 hour, 1 hour 30 min., 2 hours, 2 hours 30 min., 3 hours, 4 hours, 6 hours, 8 hours, 12 hours, and 24 hours post-dosing. […] The actual sampling time was recorded. […]
AUC(0-∞) is AUC0-t plus the extrapolated AUC from time t to infinity [ng×h/mL]. The extrapolation is calculated from the last measured concentration (Ct): AUC(0-∞)=AUC(0-t)+Ct/Kel. […]

One may read the bioavailability as dose-corrected exposure relative to a reference, in per cent. High values mean much systemic uptake, low ones little systemic uptake. Turning to `Oc1ccc2c3c1O[C@H]1[C@@H](O)CC[C@@]4(O)[C@@H](C2)N(CC2CCC2)CC[C@]314` [nalbuphine, (5α.6α)-17-(cyclobutylmethyl)-4.5epoxy-morphinan-3.6.14-triol hydrochloride], the adverse reactions recorded in data set [1] (after intramuscular administration of 10 mg of nalbuphine) worked out at 24 cases; in data set [1] (after intravenous administration of 10 mg of nalbuphine), 25 cases. Also, the bioavailability in “clinical” is 50%. In addition, the bioavailability of nalbuphine in data set [2] is listed as 16.4 to 17.7%.
